Tests used:
[1] = test system: ALDH (aldehyde dehydrogenase; ALDH2); assay: ALDH activity kit (Abcam), absorbance […] nm (NADH standard), Lineweaver-Burk; type: biochemical, Citrus sinensis; conditions: no Effector 3; incubation 1 h; varied substrate acetaldehyde (Methods)
[2] = test system: GH17 (Glycosyl Hydrolase family 17); assay: beta-glucosidase kit (MAK129), absorbance […] nm, Lineweaver-Burk; type: biochemical, Citrus sinensis; conditions: K-phosphate 100 mM, pH 6.5, 37°C, 20 min; no LasP235; substrate taken from Methods

Row | Structure (SMILES) | Km [1] [mM] | Km [2] [µM]
1 | CC=O [acetaldehyde] | 2.13 | –
2 | O=[N+]([O-])c1ccc(O[C@@H]2O[C@H](CO)[C@@H](O)[C@H](O)[C@H]2O)cc1 [p-nitrophenyl-β-D-glucopyranoside] | – | 42

Source: PMC9108871 (Frontiers in Plant Science, 2022)
